# Data taken from patent US20250177405A1, “METHODS OF TREATING NEUROLOGICAL AND CARDIOVASCULAR CONDITIONS” (ASTROCYTE PHARMACEUTICALS, INC., priority 2021, published 2025).
# Like-named read-outs stand apart in the source and are kept apart here.
# Legend:
# [1] = pharmacokinetics of I-1 after intravenous bolus in normal and tMCAO nonhuman primates; assay type: in vivo, nonhuman primate; settings: for C0 / clearance / half-life / Vd: monkey, plasma, iv, 0.5 mg/kg, intravenous bolus 0.5 mg/kg; for Vd: read-out: Vdss
# A3 receptor in the mouse = target: T1, A3 receptor in the mouse (Mus musculus, UniProt Q61618); assay: affinity at mouse A3 receptor; assay type: binding
# T1 sequence (Q61618 1-319): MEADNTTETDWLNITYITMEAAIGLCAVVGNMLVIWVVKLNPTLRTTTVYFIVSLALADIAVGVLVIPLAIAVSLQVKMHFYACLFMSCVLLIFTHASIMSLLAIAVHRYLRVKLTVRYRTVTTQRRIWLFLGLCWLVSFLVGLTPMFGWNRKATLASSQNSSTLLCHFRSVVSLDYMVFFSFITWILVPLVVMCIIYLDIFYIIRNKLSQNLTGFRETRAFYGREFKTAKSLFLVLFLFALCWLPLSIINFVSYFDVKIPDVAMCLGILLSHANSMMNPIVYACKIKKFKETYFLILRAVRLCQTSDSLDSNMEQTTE
# Description: Similar competition binding assays may be conducted using HEK293 cell membranes expressing mARs using [^125I]I-AB-MECA to label A1 or A3ARs and [^3H]CGS21680 to label A2AARs. IC50 values were converted to Ki values using known methods. Nonspecific binding was determined in the presence of 100 μM NECA.
# [2] = plasma and brain unbound fractions of I-1 in nonhuman primates; assay type: in vitro ADME; settings: nonhuman primate, Normal NHP (n = 3)
# [3] = plasma protein binding (free fraction); assay type: in vitro ADME; settings: mouse
# Excerpt: Example 3 of U.S. Pat. No. 9,789,131, which is incorporated herein by reference, describes assays for determining the plasma and brain free fraction of certain compounds such as I-1. Compounds described herein may be evaluated using such assays or similar variants thereof.
# [4] = test system: cynomolgus monkey model of transient middle cerebral artery occlusion (tMCAO); assay: transient middle cerebral artery occlusion (tMCAO) stroke model, MRI lesion and penumbra volume; assay type: in vivo, Macaca fascicularis; settings: for overall DWI lesion volume smaller compared to vehicle: I-1 composite
# Excerpt: A total of 25 adult male Macaca fascicularis macaques were used in this study, with ages ranging from 47-83 months and weights ranging from 2.7-5.4 kg.
# Under deep anesthesia, the right eyeball was removed, and the orbital content was dissected and excised using a surgical microscope (KOM300, Konan Medical Inc., Hogo, Japan). A window of approximately 10 mm in diameter was opened just anterior to the foramen of the optic canal at the base of the skull, allowing identification of the right middle cerebral artery (MCA) main trunk beneath the dura. After opening the dura mater, tMCAO was performed using 2 microvascular clips (Sugita TII, 17-001-81, Mizuho Medical, Tokyo, Japan), one on the proximal part of the main MCA trunk and the other on the distal-to-orbitofrontal brunch. Four hours after tMCAO, these clips were removed. After visual confirmation of recanalization of MCA blood flow, the burr hole was closed using Clearfil New Bond (Kuraray Noritake Dental, Inc., Tokyo, Japan) and the orbital cavity was closed according to best veterinary practice.
# Transorbital transient MCA occlusion (tMCAO) was performed using 2 microvascular clips, one placed on the proximal part of the main MCA trunk and the other on the distal-to-orbitofrontal branch (references 10, 11, 24). Four hours after MCA occlusion, these clips were removed for recanalization. After visual confirmation of restituted MCA blood flow, the burr hole was closed using Clearfil New Bond (Kuraray Noritake Dental, Inc., Tokyo, Japan) and the orbital cavity was closed according to best veterinary practice.
# Serial coronal magnetic resonance imaging (MRI) of the brain (3 mm slice thickness) was performed 0.5, 1.5, 1.8, 3.5, 6.0, 24 and 120 h post-occlusion. Imaging sequences were (i) diffusion-weighted imaging (DWI), arterial spin labeling (ASL), (ii) magnetic resonance angiography (MRA), and (iii) fluid-attenuated inversion-recovery (FLAIR) T2-weighted imaging. Apparent diffusion coefficient (ADC) maps, cerebral blood flow (CBF), and perfusion deficit were generated with FuncTool Performance (GE Healthcare, Milwaukee, WI, USA) available on the MRI scanner console. Inhibition of lesion volume was considered the primary efficacy endpoint. Penumbral volume (mm^3) was calculated by subtracting the lesion volume delineated from the DWI diffusion maps from the total calculated perfusion deficit.
# The infarct (lesion) areas (mm^2) of each coronal image were marked using OsiriX version 8.0.2 (Pixmeo SARL, Bernex, Switzerland). The infarct was manually delineated using DWI maps. The lesion volume (mm^3) was calculated as the sum of the product of each section's infarct area and slice thickness (3 mm). […] The perfusion deficit (mm^3) was calculated from ASL maps as a reduction to <30% and <50% of the corresponding region of the contralateral side. […] Penumbral volume (mm^3) was calculated by subtracting the lesion volume delineated from the DWI diffusion maps from the total calculated perfusion deficit.
# Macaques received a bolus dose of vehicle (40% PEG400 in 0.9% saline) or I-1 into a saphenous vein 2 h after occlusion (2 h prior to restoration of MCA blood flow), followed immediately by a 22 h intravenous infusion. This dosing regimen was designed to rapidly achieve and maintain pre-determined plasma and cerebrospinal fluid (CSF) steady-state concentrations of I-1 based on its pharmacokinetics previously determined in näive and MCA occluded macaques (Tables A-C below).
# brain A1R/A3R = assay: estimated brain receptor occupancy of I-1 in neonatal pig efficacy studies; assay type: in vivo
# Excerpt: Receptor occupancy is a mass action relationship:
# The percentage of a receptor occupied by an agonist or antagonist is a function of the drug concentration and the drug affinity for the receptor target. The challenge is that drug concentrations at the target site (in this case, brain, and CSF) can vary by species, as can affinity for the drug target. Affinity of I-1 for its receptor target can vary by as much as 5-fold between species. Accordingly, for each species, it is necessary to determine the I-1 affinity for its target as well as the concentration of I-1 at each administered dose in a relevant matrix.
# Using this receptor occupancy estimate, we advanced to studies in neonatal pigs, targeting doses that would yield unbound brain and CSF concentrations that would provide a similar receptor occupancy to that associated with efficacy in the rodent models. In the pig, we had the advantage of conducting pharmacokinetic studies involving CSF collection, brain equilibrium dialysis to directly determine brain unbound extracellular fluid concentrations, plasma concentrations and finally total brain concentrations. […] This was a key study to validate the use of I-1 CSF concentrations to estimate brain receptor occupancy. In the pig efficacy studies, we achieved efficacy at estimated receptor occupancies of around 2%.
smiles,measurement,setting,value
CSc1nc(N)c2ncn([C@H]3C(O)C(O)[C@]4(CO)C[C@H]34)c2n1 (stereo in doubt) [Compound I-1],I-1 plasma concentrations after single intravenous bolus,[1]; 8 h post-dose,below bioanalytical limits of quantitation
same,C0,[1]; Normal NHP (n = 3),329 ng/mL
same,clearance,[1]; Normal NHP (n = 3),29 mL/min/kg
same,half-life,[1]; Normal NHP (n = 3),1.3 h
same,Vd,[1]; Normal NHP (n = 3),3.1 L/kg
same,C0,[1]; tMCAO NHP (n = 1),544 ng/mL
same,clearance,[1]; tMCAO NHP (n = 1),28 mL/min/kg
same,half-life,[1]; tMCAO NHP (n = 1),1.5 h
same,Vd,[1]; tMCAO NHP (n = 1),3 L/kg
same,difference in affinity between I-1 and Cl-IB-MECA,A3 receptor in the mouse,"approximately 25,000 fold"
same,fraction unbound,"[2]; brain, read-out: Brain Unbound Fraction",0.56 ± 0.05
same,fraction unbound,"[2]; plasma, read-out: Plasma Unbound Fraction",0.26 ± 0.05
same,free (unbound) fraction in plasma,[3],0.74
same,lesion growth rate (slope of lesion growth) after treatment initiation,"[4]; 1.8-6.0 h post-occlusion, versus vehicle and pre-treatment, composite p=0.004",rapid decrease in lesion growth rate
same,decrease in penumbra volume during the ischemic period,"[4]; I-1-treated composite (n=16), 0.5 h to 3.5 h post-occlusion, vehicle 71%, p=0.01",48%
same,rate of penumbra volume decrease,"[4]; I-1-treated composite, vehicle 604.5 mm^3/h",296.0 mm^3/h
same,overall DWI lesion volume smaller compared to vehicle,"[4]; 24 h post-occlusion, p=0.07",20%
same,overall DWI lesion volume smaller compared to vehicle,"[4]; 120 h post-occlusion, p=0.05",30%
same,estimated receptor occupancies at which efficacy was achieved,brain A1R/A3R,around 2%
